Results taken from US7534894B2, “Biphenyloxy-acids” (Wyeth, priority 2003, dated 2009).

Legend:
[1] = molecular target: T1, recombinant human plasminogen activator inhibitor-1 (PAI-1) (Homo sapiens, UniProt P05121); test: Primary Screen for the PAI-1 Inhibition (residual tPA activity, chromogenic substrate Spectrozyme-tPA); type: biochemical; conditions: 140 nM PAI-1, 70 nM tPA, pH 6.6; for inhibition at 25 µM: 25 μM test compound; for inhibition at 100 µM: 100 μM test compound
T1 construct: purchased Molecular Innovations, Royal Oak, Mich
T1 sequence (P05121 24-402): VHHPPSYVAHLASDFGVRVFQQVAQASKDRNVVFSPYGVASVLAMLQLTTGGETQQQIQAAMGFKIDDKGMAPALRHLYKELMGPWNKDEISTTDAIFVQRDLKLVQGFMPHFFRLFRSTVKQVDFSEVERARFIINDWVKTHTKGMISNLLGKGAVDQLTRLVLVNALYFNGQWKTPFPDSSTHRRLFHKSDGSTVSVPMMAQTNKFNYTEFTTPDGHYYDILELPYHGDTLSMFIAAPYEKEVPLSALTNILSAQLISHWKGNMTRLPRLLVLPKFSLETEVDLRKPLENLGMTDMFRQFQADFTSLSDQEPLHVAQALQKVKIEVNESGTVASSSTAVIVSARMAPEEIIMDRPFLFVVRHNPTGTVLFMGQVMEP
Protocol: (§1) Test compounds are dissolved in DMSO at a final concentration of 10 mM, then diluted 101× in physiologic buffer. The inhibitory assay is initiated by the addition of the test compound (1-100 μM final concentration, maximum DMSO concentration of 0.2%) in a pH 6.6 buffer containing 140 nM recombinant human plasminogen activator inhibitor-1 (PAI-1; Molecular Innovations, Royal Oak, Mich.). Following a 1 hour incubation at room temperature, 70 nM of recombinant human tissue plasminogen activator (tPA) is added, and the combination of the test compound, PAI-1 and tPA is incubated for an additional 30 minutes. Following the second incubation, Spectrozyme-tPA (American Diagnostica, Greenwich, Conn.), a chromogenic substrate for tPA, is added and absorbance read at 405 nm at 0 and 60 minutes. Relative PAI-1 inhibition is equal to the residual tPA activity in the presence of the test compound and PAI-1. Control treatments include the complete inhibition of tPA by PAI-1 at the molar ratio employed (2:1), and the absence of any effect of the test compound on tPA alone.

[2] = molecular target: T1, recombinant human plasminogen activator inhibitor-1 (PAI-1); test: Kinetic IC50: modification of the Primary Screen for the PAI-1 Inhibition; type: biochemical
Protocol: as §1

human PAI-1 = human PAI-1 (Homo sapiens, UniProt P05121); test: Antibody Assay for Determining IC50 of Inhibition of PAI-1 (active PAI-1 bound to tPA-coated plate, 33B8 antibody); type: binding; conditions: test compound incubated with human PAI-1 50 ng/ml, pH 7.5
Sequence of human PAI-1 (P05121 24-402): as above
Protocol: This assay is based upon the non-SDS dissociable interaction between tPA and active PAI-1. Assay plates are initially coated with human tPA (10 μg/ml). Test compounds of the present invention are dissolved in DMSO at 10 mM, then diluted with physiologic buffer (pH 7.5) to a final concentration of 1-50 μM. Test compounds are incubated with human PAI-1 (50 ng/ml) for 15 minutes at room temperature. The tPA-coated plate is washed with a solution of 0.05% Tween 20 and 0. 1% BSA, then the plate is blocked with a solution of 3% BSA. An aliquot of the substituted biphenyloxy acid/PAI-1 solution is then added to the tPA-coated plate, incubated at room temperature for 1 hour, and washed. Active PAI-1 bound to the plate is assessed by adding an aliquot of a 1:1000 dilution of the 33B8 monoclonal antibody against human PAI-1, and incubating the plate at room temperature for 1 hour (Molecular Innovations, Royal Oak, Mich.). The plate is again washed, and a solution of goat anti-mouse IgG-alkaline phosphatase conjugate is added at a 1:50,000 dilution in goat serum. The plate is incubated 30 minutes at room temperature, washed, and a solution of alkaline phosphatase substrate is added. The plate is incubated 45 minutes at room temperature, and color development is determined at OD405nm. The quantitation of active PAI-1 bound to tPA at varying concentrations of the test compound is used-to determine the IC50. Results are analyzed using a logarithmic best-fit equation. The assay sensitivity is 5 ng/ml of human PAI-1 as determined from a standard curve ranging from 0-100 ng/ml.

Row | Structure (SMILES) | inhibition at 25 µM [1] | inhibition at 100 µM [1] | melting point | IC50 [2] | IC50 (human PAI-1)
1 | CCCCc1oc2ccccc2c1C(=O)NCc1ccc(-c2ccc(OCC(=O)O)c(Br)c2)cc1 [Compound 4, {[3-bromo-4′-({[(2-butyl-1-benzofuran-3-yl)carbonyl]amino}methyl)[1,1′-biphenyl]-4-yl]oxy}acetic acid] | 44% | 82% | 175 to 190 °C |  | 
2 | O=C(O)C(Cc1ccccc1)Oc1ccc(-c2ccc(NC(=O)C3(c4ccccc4)CC3)cc2)cc1 (stereo not drawn) [Compound 32, 3-phenyl-2-[(4′-{[(1-phenylcyclopropyl)carbonyl]amino}-1,1′-biphenyl-4-yl)oxy]Propanoic acid] | 15% | 78% |  | 4.04 µM | 
3 | O=C(Nc1ccc(-c2ccc(OC(Cc3ccccc3)C(=O)O)cc2)cc1)c1cc(-c2ccc(C(F)(F)F)cc2)oc1C(F)(F)F (stereo not drawn) [Compound 50, 3-phenyl-2-{[4′-({2-(trifluoromethyl)-5-[4-(trifluoromethyl)phenyl]-3-furoyl}amino)-1,1′-biphenyl-4-yl]oxy}propanoic acid] | 27% | 95% |  | 18.7 µM | 
4 | CCCCc1oc2ccccc2c1C(=O)Nc1ccc(-c2cccc(OC(Cc3ccccc3)C(=O)O)c2)cc1 (stereo not drawn) [Compound 41, 2-[(4′-{[(2-butyl-1-benzofuran-3-yl)carbonyl]amino}-1,1′-biphenyl-3-yl)oxy]-3-phenylpropanoic acid] | 30% | 95% |  | 9.1 µM | 
5 | CCCCc1oc2ccccc2c1C(=O)Nc1ccc(-c2ccc(OCc3nnn[nH]3)cc2)cc1 [Compound 14, 2-Butyl-N-[4′-(1H-tetraazol-5-ylmethoxy)[1,1′-biphenyl]-4-yl]-1-benzofuran-3-carboxamide] | 29% | 62% | 210 to 212 °C |  | 
6 | O=C(O)C(Cc1ccccc1)Oc1cccc(-c2ccc(NC(=O)C3(c4ccc(Cl)cc4)CC3)cc2)c1 (stereo not drawn) [Compound 29, 2-{[4′-({[1-(4-chlorophenyl)cyclopropyl]carbonyl}amino)-1,1′-biphenyl-3-yl]oxy}-3-phenylpropanoic acid] | 31% | 83% |  | 31.2 µM | 
7 | O=C(Nc1ccc(-c2ccc(OC(Cc3ccccc3)C(=O)O)cc2)cc1)c1ccc(Oc2ccccc2)cc1 (stereo not drawn) [Compound 45, 2-({4′-[(4-phenoxybenzoyl)amino]-1,1′-biphenyl-4-yl}oxy)-3-phenylpropanoic acid] | 34% | 61% |  | 11.5 µM | 
8 | O=C(O)C(Cc1ccccc1)Oc1cccc(-c2ccc(NC(=O)C3(c4ccccc4)CCCC3)cc2)c1 (stereo not drawn) [Compound 25, 3-phenyl-2-[(4′-{[(1-phenylcyclopentyl)carbonyl]amino}-1,1′-biphenyl-3-yl)oxy]propanoic acid] | 26% | 74% |  | 40.8 µM | 
9 | O=C(O)C(Cc1ccccc1)Oc1ccc(-c2ccc(NC(=O)C3(c4ccc(Cl)cc4)CC3)cc2)cc1 (stereo not drawn) [Compound 33, 2-{[4′-({[1-(4-chlorophenyl)cyclopropyl]carbonyl}amino)-1,1′-biphenyl-4-yl]oxy}-3-phenylpropanoic acid] | 22% | 79% |  | 13.9 µM | 
10 | CN(Cc1ccc(-c2ccc(OCc3nnn[nH]3)c(Br)c2)cc1)C(=O)c1cn(Cc2ccccc2)c2ccccc12 [Compound 10, 1-Benzyl-N-{[3′-bromo-4′-(1H-tetraazol-5-ylmethoxy)-1,1′-biphenyl-4-yl]methyl}-N-methyl-1H-indole-3-carboxamide] | 45% | 76% |  |  | 30 µM

Next, values leading:

Row | inhibition at 25 µM [1] | inhibition at 100 µM [1] | melting point | IC50 [2] | IC50 (human PAI-1) | Structure (SMILES)
11 | 25% | 85% | 225 to 227 °C |  |  | CCCCc1oc2ccccc2c1C(=O)Nc1ccc(-c2ccc(OCC(=O)O)cc2)cc1 [Compound 13, [(4′-{[(2-butyl-1-benzofuran-3-yl)carbonyl]amino}[1,1′-biphenyl]-4-yl)oxy]acetic acid]
12 | 7% | 78% |  | 23.2 µM |  | O=C(Nc1ccc(-c2ccc(OC(Cc3ccccc3)C(=O)O)cc2)cc1)c1cc(-c2ccccc2Cl)oc1C(F)(F)F (stereo not drawn) [Compound 48, 2-[(4′-{[5-(2-chlorophenyl)-2-(trifluoromethyl)-3-furoyl]amino}-1,1′-biphenyl-4-yl)oxy]-3-phenylpropanoic acid]
13 | 17% | 52% |  | 11.8 µM |  | Cc1nn(Cc2ccc(C(=O)Nc3ccc(-c4cccc(OC(Cc5ccccc5)C(=O)O)c4)cc3)o2)c(C)c1Br (stereo not drawn) [Compound 44, 2-{[4′-({5-[(4-bromo-3,5-dimethyl-1H-pyrazol-1-yl)methyl]-2-furoyl}amino)-1,1′-biphenyl-3-yl]oxy}-3-phenylpropanoic acid]
14 | 26% | 88% |  | 12 µM |  | O=C(Nc1ccc(-c2cccc(OC(Cc3ccccc3)C(=O)O)c2)cc1)c1cc(-c2ccc(C(F)(F)F)cc2)oc1C(F)(F)F (stereo not drawn) [Compound 43, 3-phenyl-2-{[4′-({2-(trifluoromethyl)-5-[4-(trifluoromethyl)phenyl]-3-furoyl}amino)-1,1′-biphenyl-3-yl]oxy}propanoic acid]
15 | 2% | 66% | 190 to 192 °C |  |  | CCCc1c(C(=O)NCc2ccc(-c3ccc(OCC(=O)O)cc3)cc2)cnn1-c1ccccc1 [Compound 2, ({4′-[({[1-phenyl-5-propyl-1H-pyrazol-4-yl]carbonyl}amino)methyl][1,1′-biphenyl]-4-yl}oxy)acetic acid]
16 | 23% | 73% |  | 17.4 µM |  | O=C(O)C(Cc1ccccc1)Oc1cccc(-c2ccc(NC(=O)C3(c4cccc(F)c4)CCCC3)cc2)c1 (stereo not drawn) [Compound 30, 2-{[4′-({[1-(3-fluorophenyl)cyclopentyl]carbonyl}amino)-1,1′-biphenyl-3-yl]oxy}-3-phenylpropanoic acid]
17 | 36% | 84% |  | 5.4 µM |  | O=C(Nc1ccc(-c2ccc(OC(Cc3ccccc3)C(=O)O)cc2)cc1)c1ccc(-c2ccc(Cl)cc2)s1 (stereo not drawn) [Compound 46, 2-{[4′-({[5-(4-chlorophenyl)thien-2-yl]carbonyl}amino)-1,1′-biphenyl-4-yl]oxy}-3-phenylpropanoic acid]
18 | 5% | 52% |  | 38.7 µM |  | O=C(Nc1ccc(-c2cccc(OC(Cc3ccccc3)C(=O)O)c2)cc1)c1ccc(-c2ccc(Cl)cc2)s1 (stereo not drawn) [Compound 38, 2-{[4′-({[5-(4-chlorophenyl)thien-2-yl]carbonyl}amino)-1,1′-biphenyl-3-yl]oxy}-3-phenylpropanoic acid]
19 | 20% | 63% |  | 7.8 µM |  | CCCc1c(C(=O)Nc2ccc(-c3cccc(OC(Cc4ccccc4)C(=O)O)c3)cc2)cnn1-c1ccc(Cl)cc1 (stereo not drawn) [Compound 27, 2-{[4′-({[1-(4-chlorophenyl)-5-propyl-1H-pyrazol-4-yl]carbonyl}amino)-1,1′-biphenyl-3-yl]oxy}-3-phenylpropanoic acid]
20 | 42% | 94% |  |  | 10.8 µM | CCCCc1oc2ccccc2c1C(=O)N(C)Cc1ccc(-c2ccc(OCc3nnn[nH]3)c(Br)c2)cc1 [Compound 6, N-{[3′-bromo-4′-(1H-tetraazol-5-ylmethoxy)-1,1′-biphenyl-4-yl]methyl}-2-butyl-N-methyl-1-benzofuran-3-carboxamide]
21 | 13% | 65% |  | 18.1 µM |  | O=C(Nc1ccc(-c2cccc(OC(Cc3ccccc3)C(=O)O)c2)cc1)c1ccc(Oc2ccccc2)cc1 (stereo not drawn) [Compound 37, 2-({4′-[(4-phenoxybenzoyl)amino]-1,1′-biphenyl-3-yl}oxy)-3-phenylpropanoic acid]
